In the NIST ThermoML archive (doi:10.1016/j.fluid.2012.08.005):

Test: xn = mol fraction of the nth substance listed
Settings: 101 kPa, Liquid, Vibrating tube method

c1ccoc1 [furan] + Cc1ccccc1
mass density [kg/m3]
Settings	x1 = 0.1	x1 = 0.199	x1 = 0.387	x1 = 0.507	x1 = 0.591	x1 = 0.761	x1 = 0.89	x1 = 1
293.15 K	873.3	878.9	889.8	897.7	903.8	917.5	929.2	939.8
298.15 K	869.5	875	885.6	893.2	899.1	912.4	923.7	934
303.15 K	865.9	871.2	881.5	888.9	894.6	907.5	918.4	928.3

c1ccoc1 [furan] + CCCCCC
mass density [kg/m3]
Settings	x1 = 0.12	x1 = 0.199	x1 = 0.365	x1 = 0.511	x1 = 0.623	x1 = 0.786	x1 = 0.908	x1 = 1
293.15 K	677.8	690.2	721.4	755.2	786.2	841.2	891.9	939.8
298.15 K	673.9	686.1	717	750.5	781.4	835.9	886.4	934
303.15 K	670	682.2	712.8	746	776.6	830.8	881	928.3

CCCCCC [hexane] + c1ccoc1
x2 = 0
Settings	mass density [kg/m3]
293.15 K	660.8
298.15 K	657
303.15 K	653.3

Cc1ccccc1 [toluene] + c1ccoc1
x2 = 0
Settings	mass density [kg/m3]
293.15 K	868.2
298.15 K	864.5
303.15 K	861
